Laboratory results published in patent publication US12090176B2 (priority 2019, dated 2024).
Read-outs that look alike come from different tables or passages of the source.

System: hematopoietic system damage model in which the mouse has been exposed to cyclophosphamide
Type: in vivo, KM mice
Set-up: unit not given here

SMILES: C#C[C@]1(O)[C@H](O)C[C@H]2[C@@H]3CCc4cc(OC5CCCC5)ccc4[C@H]3CC[C@@]21C [Nilestriol]
- peripheral blood WBC (nilestriol 10 mg/kg group, normal (before modeling)): 13.8 ± 2.5 ×10^12
- peripheral blood WBC (nilestriol 10 mg/kg once 6 h after cyclophosphamide, 1 d after modeling): 3.6 ± 0.9 ×10^12
- peripheral blood WBC (nilestriol 10 mg/kg once 6 h after cyclophosphamide, 4 d after modeling): 3.5 ± 2.5 ×10^12
- peripheral blood WBC (nilestriol 10 mg/kg once 6 h after cyclophosphamide, 6 d after modeling): 8.0 ± 2.5 ×10^12
- peripheral blood WBC (nilestriol 10 mg/kg once 6 h after cyclophosphamide, 12 d after modeling): 12.0 ± 5.9 ×10^12
